# Test results from the supplement of paper PMC4862054.
# Columns and labels:
# Conditions in all cases: incubation time: 72 h
# [1] = system: MFM-223; assay: normalised viability (% of control), CellTiter-Blue; higher = more viable cells (about 100 = DMSO control)
# Procedure, shortened: (§1)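 Normalised viability is given for a single listed concentration of the series. In 384-well plates, breast cancer cell lines were incubated 72 h with compound, then read with CellTiter-Blue (2 h, 37 °C) at 560/590 nm. Per-plate scaling set vehicle to 100 and a positive kill control to 0, with Z'-factor quality control.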
# [2] = system: HCC1143; assay: as above
# Procedure, shortened: as §1
# [3] = system: HCC1937; assay: as above
# Procedure, shortened: as §1
# [4] = system: MDA-MB-468; assay: as above
# Procedure, shortened: as §1
# [5] = system: CAL-120; assay: as above
# Procedure, shortened: as §1
# [6] = system: SK-BR-3; assay: as above
# Procedure, shortened: as §1
# [7] = system: BT-474; assay: as above
# Procedure, shortened: as §1
# [8] = system: HDQ-P1; assay: as above
# Procedure, shortened: as §1
# [9] = system: CAL-51; assay: as above
# Procedure, shortened: as §1
# [10] = system: MDA-MB-231; assay: as above
# Procedure, shortened: as §1
# [11] = system: MDA-MB-453; assay: drug sensitivity score (DSS), CellTiter-Glo (DSS (AUC-based score)); higher = stronger drug effect (viability inhibition or cytotoxicity); extreme values may be limits of the assay
# Procedure, shortened: (§2)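 Normalisation on every plate relied on 0.1 % DMSO and a positive kill control. The plates, 384-well format, held compound at 5 concentrations 10-fold apart across a compound-specific 10,000-fold range, and breast cancer cell lines in 20 µl suspension were incubated on them for 72 h before CellTox Green and then CellTiter-Glo readings. The drug sensitivity score derives from the area under the fitted dose-response curve.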
# [12] = system: MFM-223; assay: as above
# Procedure, shortened: as §2
# [13] = system: HCC1143; assay: as above
# Procedure, shortened: as §2
# [14] = system: HCC1599; assay: as above
# Procedure, shortened: as §2
# [15] = system: HCC1937; assay: as above
# Procedure, shortened: as §2
# [16] = system: MDA-MB-468; assay: as above
# Procedure, shortened: as §2
# [17] = system: Hs578T; assay: as above
# Procedure, shortened: as §2
# [18] = system: BT-549; assay: as above
# Procedure, shortened: as §2
# [19] = system: SK-BR-3; assay: as above
# Procedure, shortened: as §2
# [20] = system: BT-474; assay: as above
# Procedure, shortened: as §2
# [21] = system: CAL-51; assay: as above
# Procedure, shortened: as §2
# [22] = system: CAL-148; assay: as above
# Procedure, shortened: as §2
# [23] = system: MCF-10A; assay: as above
# Procedure, shortened: as §2
# [24] = system: MDA-MB-436; assay: as above
# Procedure, shortened: as §2
# [25] = system: CAL-85-1; assay: as above
# Procedure, shortened: as §2
smiles,measurement,setting,value
Cc1ccc(C(=O)N(CCCN)[C@@H](c2oc3cc(Cl)ccc3c(=O)c2Cc2ccccc2)C(C)C)cc1,normalised viability,[1]; 1 nM,105%
same,normalised viability,[1]; 100 nM,43.4%
same,normalised viability,[1]; 1000 nM,40.6%
same,normalised viability,[2]; 1 nM,83.7%
same,normalised viability,[2]; 100 nM,43.2%
same,normalised viability,[2]; 1000 nM,37.5%
same,normalised viability,[3]; 1 nM,51.2%
same,normalised viability,[3]; 100 nM,26.6%
same,normalised viability,[3]; 1000 nM,22.3%
same,normalised viability,[4]; 1 nM,88.4%
same,normalised viability,[4]; 100 nM,26.5%
same,normalised viability,[4]; 1000 nM,36.3%
same,normalised viability,[5]; 1 nM,53%
same,normalised viability,[5]; 100 nM,27.8%
same,normalised viability,[5]; 1000 nM,26.7%
same,normalised viability,[6]; 1 nM,45%
same,normalised viability,[6]; 100 nM,20.8%
same,normalised viability,[6]; 1000 nM,18.2%
same,normalised viability,[7]; 1 nM,117%
same,normalised viability,[7]; 100 nM,27.5%
same,normalised viability,[7]; 1000 nM,28.7%
same,normalised viability,[8]; 0.3 nM,128%
same,normalised viability,[8]; 3 nM,75.8%
same,normalised viability,[8]; 10 nM,59.1%
same,normalised viability,[9]; 0.3 nM,106%
same,normalised viability,[9]; 3 nM,101%
same,normalised viability,[9]; 10 nM,38.6%
same,normalised viability,[10]; 1 nM,37.1%
same,normalised viability,[10]; 100 nM,25.8%
same,normalised viability,[10]; 1000 nM,24.2%
same,drug sensitivity score,[11],0
same,drug sensitivity score,[12],0
same,drug sensitivity score,[13],0
same,drug sensitivity score,[14],0
same,drug sensitivity score,[15],0
same,drug sensitivity score,[16],0
same,drug sensitivity score,[17],0
same,drug sensitivity score,[18],0
same,drug sensitivity score,[19],0
same,drug sensitivity score,[20],0
same,drug sensitivity score,[21],9.66
same,drug sensitivity score,[22],0
same,drug sensitivity score,[23],0
same,drug sensitivity score,[24],0
same,drug sensitivity score,[25],0
